Reference: patent US9932381B2, “Exendin-4 derivatives as selective glucagon receptor agonists” (priority 2014, dated 2018)
Like-named read-outs stand apart in the source and are kept apart here. Values belong to the compound of their own block, whether it stands above or below them. Non-standard residues stand in square brackets, D forms with d. Residues, ends and D or L forms follow the SMILES beside them. Ala(4-thiazolyl) = N[C@@H](Cc1cscn1)C(=O)O; 1Nal = N[C@@H](Cc1cccc2ccccc12)C(=O)O; Phe(2-F) = N[C@@H](Cc1ccccc1F)C(=O)O; Nle = CCCC[C@H](N)C(=O)O

Experiments:
[1] = target: T1, human GLP-1 receptor (hGLP-1 R) (Homo sapiens, UniProt P43220); assay: cAMP response (HTRF) of HEK-293 cells stably expressing human GLP-1 receptor; assay type: cell-based; conditions: Table 4
T1 construct: expressed in transfected cells; host or cells: HEK-293
Method: (§1) cAMP content of cells was determined using a kit from Cisbio Corp. (cat. no. 62AM4PEC) based on HTRF (Homogenous Time Resolved Fluorescence). For preparation, cells were split into T175 culture flasks and grown overnight to near confluency in medium (DMEM/10% FBS). Medium was then removed and cells washed with PBS lacking calcium and magnesium, followed by proteinase treatment with accutase (Sigma-Aldrich cat. no. A6964). Detached cells were washed and resuspended in assay buffer (1×HBSS; 20 mM HEPES, 0.1% BSA, 2 mM IBMX) and cellular density determined. They were then diluted to 400000 cells/ml and 25 μl-aliquots dispensed into the wells of 96-well plates. For measurement, 25 μl of test compound in assay buffer was added to the wells, followed by incubation for 30 minutes at room temperature. After addition of HTRF reagents diluted in lysis buffer (kit components), the plates were incubated for 1 hr, followed by measurement of the fluorescence ratio at 665/620 nm. In vitro potency of agonists was quantified by determining the concentrations that caused 50% activation of maximal response (EC50).

[2] = target: T2, human glucagon receptor (hGLUC R) (Homo sapiens, UniProt P47871); assay: cAMP response (HTRF) of HEK-293 cells stably expressing human glucagon receptor; assay type: cell-based
T2 construct: expressed in transfected cells; host or cells: HEK-293
Method: as §1, with “temperature.” for “temperature. After addition of HTRF reagents diluted in lysis buffer (kit components), the plates were incubated for 1 hr, followed by measurement of the fluorescence ratio at 665/620 nm. In vitro potency of agonists was quantified by determining the concentrations that caused 50% activation of maximal response (EC50).”

[3] = Table 5, Tza vs. His in position 1, read-out: EC50 hGlucagon-R
[4] = Table 4, read-out: EC50 hGLUC R

T2 sequence (P47871 26-477): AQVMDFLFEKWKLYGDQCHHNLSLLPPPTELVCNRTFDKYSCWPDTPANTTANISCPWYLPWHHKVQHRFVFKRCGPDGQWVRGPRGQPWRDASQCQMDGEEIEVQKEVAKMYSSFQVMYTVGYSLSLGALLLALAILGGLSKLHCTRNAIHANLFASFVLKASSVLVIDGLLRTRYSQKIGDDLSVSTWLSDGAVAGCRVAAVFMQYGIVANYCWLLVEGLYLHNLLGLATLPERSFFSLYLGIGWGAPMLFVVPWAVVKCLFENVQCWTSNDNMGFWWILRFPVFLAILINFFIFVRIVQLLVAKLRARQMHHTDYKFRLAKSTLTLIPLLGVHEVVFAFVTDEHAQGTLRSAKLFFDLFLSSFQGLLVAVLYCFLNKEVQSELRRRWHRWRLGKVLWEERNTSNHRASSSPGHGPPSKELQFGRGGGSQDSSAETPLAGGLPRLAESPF
T1 sequence (P43220 24-463): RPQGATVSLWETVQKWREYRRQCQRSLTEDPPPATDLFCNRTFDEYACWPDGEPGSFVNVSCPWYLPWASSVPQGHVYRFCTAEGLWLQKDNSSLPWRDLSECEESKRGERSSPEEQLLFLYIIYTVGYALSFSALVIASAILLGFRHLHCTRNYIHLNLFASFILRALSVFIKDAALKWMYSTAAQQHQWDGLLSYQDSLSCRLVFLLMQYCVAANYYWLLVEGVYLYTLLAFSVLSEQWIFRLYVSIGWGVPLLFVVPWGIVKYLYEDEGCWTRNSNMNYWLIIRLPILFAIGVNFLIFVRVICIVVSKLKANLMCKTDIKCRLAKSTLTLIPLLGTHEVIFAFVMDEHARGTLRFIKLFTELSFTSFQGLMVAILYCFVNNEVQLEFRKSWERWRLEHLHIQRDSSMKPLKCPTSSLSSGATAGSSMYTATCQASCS

EC50 [1]: 3300 pM
Compound: CC[C@H](C)[C@H](NC(=O)[C@H](Cc1ccccc1)NC(=O)[C@H](CCC(=O)O)NC(=O)[C@H](CCC(N)=O)NC(=O)[C@H](C)NC(=O)[C@H](CCCNC(=N)N)NC(=O)[C@H](CCCNC(=N)N)NC(=O)[C@H](CO)NC(=O)[C@H](CCC(=O)O)NC(=O)[C@H](CC(C)C)NC(=O)[C@H](CCC(N)=O)NC(=O)[C@H](CCCCN)NC(=O)[C@H](CO)NC(=O)[C@H](CC(C)C)NC(=O)[C@H](CC(=O)O)NC(=O)[C@H](CO)NC(=O)[C@@H](NC(=O)[C@H](Cc1ccccc1)NC(=O)[C@@H](NC(=O)CNC(=O)[C@H](CCC(N)=O)NC(=O)[C@H](CO)NC(=O)[C@@H](N)Cc1cscn1)[C@@H](C)O)[C@@H](C)O)C(=O)N[C@@H](CCC(=O)O)C(=O)N[C@@H](Cc1c[nH]c2ccccc12)C(=O)N[C@@H](CC(C)C)C(=O)N[C@@H](CC(C)C)C(=O)N[C@@H](C)C(=O)NCC(=O)NCC(=O)N1CCC[C@H]1C(=O)N[C@@H](CCC(=O)O)C(=O)N[C@@H](CO)C(=O)NCC(=O)N[C@@H](C)C(=O)N1CCC[C@H]1C(=O)N1CCC[C@H]1C(=O)N1CCC[C@H]1C(=O)N[C@@H](CO)C(=O)O [SEQ ID NO 4, Tza-SQGTFTSDLSKQLESRRAQEFIEWLLAGGPESGAPPPS-OH] (H-[Ala(4-thiazolyl)]SQGTFTSDLSKQLESRRAQEFIEWLLAGGPESGAPPPS-OH; N-terminus assumed)

EC50 [1]: 11700 pM
Compound: CC[C@H](C)[C@H](NC(=O)[C@H](Cc1ccccc1)NC(=O)[C@H](CCC(=O)O)NC(=O)[C@H](CCC(N)=O)NC(=O)[C@H](C)NC(=O)[C@H](CCCNC(=N)N)NC(=O)[C@H](CCCNC(=N)N)NC(=O)[C@H](CO)NC(=O)[C@H](CCC(=O)O)NC(=O)[C@H](CC(C)C)NC(=O)[C@H](CCC(N)=O)NC(=O)[C@H](CCCCN)NC(=O)[C@H](CO)NC(=O)[C@H](Cc1cccc2ccccc12)NC(=O)[C@H](CC(=O)O)NC(=O)[C@H](CO)NC(=O)[C@@H](NC(=O)[C@H](Cc1ccccc1)NC(=O)[C@@H](NC(=O)CNC(=O)[C@H](CCC(N)=O)NC(=O)[C@H](CO)NC(=O)[C@@H](N)Cc1cscn1)[C@@H](C)O)[C@@H](C)O)C(=O)N[C@@H](CCC(=O)O)C(=O)N[C@@H](Cc1c[nH]c2ccccc12)C(=O)N[C@@H](CC(C)C)C(=O)N[C@@H](CC(C)C)C(=O)N[C@@H](C)C(=O)N[C@H](C(=O)NCC(=O)N1CCC[C@H]1C(=O)N[C@@H](CCC(=O)O)C(=O)N[C@@H](CO)C(=O)NCC(=O)N[C@@H](C)C(=O)N1CCC[C@H]1C(=O)N1CCC[C@H]1C(=O)N1CCC[C@H]1C(=O)N[C@@H](CO)C(=O)O)[C@@H](C)O [SEQ ID NO 11, Tza-S-Q-G-T-F-T-S-D-1Nal-SKQLESRRAQEFIEWLLATGPESGAPPPS-OH] (H-[Ala(4-thiazolyl)]SQGTFTSD[1Nal]SKQLESRRAQEFIEWLLATGPESGAPPPS-OH; N-terminus assumed)

EC50 [2, 3]: 1.4 pM
Compound: CCCC[C@H](NC(=O)[C@H](CCC(N)=O)NC(=O)[C@H](CCCCN)NC(=O)[C@H](CO)NC(=O)[C@H](CC(C)C)NC(=O)[C@H](CC(=O)O)NC(=O)[C@H](CO)NC(=O)[C@@H](NC(=O)[C@H](Cc1ccccc1)NC(=O)[C@@H](NC(=O)CNC(=O)[C@H](CCC(N)=O)NC(=O)[C@H](CO)NC(=O)[C@@H](N)Cc1c[nH]cn1)[C@@H](C)O)[C@@H](C)O)C(=O)N[C@@H](CCC(=O)O)C(=O)N[C@@H](CO)C(=O)N[C@@H](CCCNC(=N)N)C(=O)N[C@@H](CCCNC(=N)N)C(=O)N[C@@H](C)C(=O)N[C@@H](CCC(N)=O)C(=O)N[C@@H](CCC(=O)O)C(=O)N[C@@H](Cc1ccccc1)C(=O)N[C@H](C(=O)N[C@@H](CCC(=O)O)C(=O)N[C@@H](Cc1c[nH]c2ccccc12)C(=O)N[C@@H](CC(C)C)C(=O)N[C@@H](CC(C)C)C(=O)N[C@@H](C)C(=O)N[C@H](C(=O)NCC(=O)N1CCC[C@H]1C(=O)N[C@@H](CCC(=O)O)C(=O)N[C@@H](CO)C(=O)NCC(=O)N[C@@H](C)C(=O)N1CCC[C@H]1C(=O)N1CCC[C@H]1C(=O)N1CCC[C@H]1C(=O)N[C@@H](CO)C(=O)O)[C@@H](C)O)[C@@H](C)CC [SEQ ID NO 36, H-S-Q-G-T-F-T-S-D-L-S-K-Q-Nle-ESRRAQEFIEWLLATGPESGAPPPS-OH, reference compound] (H-HSQGTFTSDLSKQ[Nle]ESRRAQEFIEWLLATGPESGAPPPS-OH)

EC50 [1]: 19700 pM
Compound: CCCC[C@H](NC(=O)[C@H](CCC(N)=O)NC(=O)[C@H](CCCCN)NC(=O)[C@H](CO)NC(=O)[C@H](CC(C)C)NC(=O)[C@H](CC(=O)O)NC(=O)[C@H](CO)NC(=O)[C@@H](NC(=O)[C@H](Cc1ccccc1)NC(=O)[C@@H](NC(=O)CNC(=O)[C@H](CCC(N)=O)NC(=O)[C@H](CO)NC(=O)[C@@H](N)Cc1cscn1)[C@@H](C)O)[C@@H](C)O)C(=O)N[C@@H](CCC(=O)O)C(=O)N[C@@H](CO)C(=O)N[C@@H](CCCNC(=N)N)C(=O)N[C@@H](CCCNC(=N)N)C(=O)N[C@@H](C)C(=O)N[C@@H](CCC(N)=O)C(=O)N[C@@H](CCC(=O)O)C(=O)N[C@@H](Cc1ccccc1)C(=O)N[C@H](C(=O)N[C@@H](CCC(=O)O)C(=O)N[C@@H](Cc1c[nH]c2ccccc12)C(=O)N[C@@H](CC(C)C)C(=O)N[C@@H](CC(C)C)C(=O)N[C@@H](C)C(=O)N[C@H](C(=O)NCC(=O)N1CCC[C@H]1C(=O)N[C@@H](CCC(=O)O)C(=O)N[C@@H](CO)C(=O)NCC(=O)N[C@@H](C)C(=O)N1CCC[C@H]1C(=O)N1CCC[C@H]1C(=O)N1CCC[C@H]1C(=O)N[C@@H](CO)C(=O)O)[C@@H](C)O)[C@@H](C)CC [SEQ ID NO 16, Tza-S-Q-G-T-F-T-S-D-L-S-K-Q-Nle-ESRRAQEFIEWLLATGPESGAPPPS-OH] (H-[Ala(4-thiazolyl)]SQGTFTSDLSKQ[Nle]ESRRAQEFIEWLLATGPESGAPPPS-OH; N-terminus assumed)

EC50 [2, 4]: 3.1 pM
Compound: CCCC[C@H](NC(=O)[C@H](CCC(N)=O)NC(=O)[C@H](CCCCN)NC(=O)[C@H](CO)NC(=O)[C@H](Cc1ccccc1)NC(=O)[C@H](CC(=O)O)NC(=O)[C@H](CO)NC(=O)[C@@H](NC(=O)[C@H](Cc1ccccc1)NC(=O)[C@@H](NC(=O)CNC(=O)[C@H](CCC(N)=O)NC(=O)[C@H](CO)NC(=O)[C@@H](N)Cc1cscn1)[C@@H](C)O)[C@@H](C)O)C(=O)N[C@@H](CCC(=O)O)C(=O)N[C@@H](CO)C(=O)N[C@@H](CCCNC(=N)N)C(=O)N[C@@H](CCCNC(=N)N)C(=O)N[C@@H](C)C(=O)N[C@@H](CCC(N)=O)C(=O)N[C@@H](CC(=O)O)C(=O)N[C@@H](Cc1ccccc1)C(=O)N[C@H](C(=O)N[C@@H](CCC(=O)O)C(=O)N[C@@H](Cc1c[nH]c2ccccc12)C(=O)N[C@@H](CC(C)C)C(=O)N[C@@H](CC(C)C)C(=O)N[C@@H](C)C(=O)N[C@H](C(=O)NCC(=O)N1CCC[C@H]1C(=O)N[C@@H](CCC(=O)O)C(=O)N[C@@H](CO)C(=O)NCC(=O)N[C@@H](C)C(=O)N1CCC[C@H]1C(=O)N1CCC[C@H]1C(=O)N1CCC[C@H]1C(=O)N[C@@H](CO)C(=O)O)[C@@H](C)O)[C@@H](C)CC [SEQ ID NO 13, Tza-S-Q-G-T-F-T-S-D-F-S-K-Q-Nle-ESRRAQDFIEWLLATGPESGAPPPS-OH] (H-[Ala(4-thiazolyl)]SQGTFTSDFSKQ[Nle]ESRRAQDFIEWLLATGPESGAPPPS-OH; N-terminus assumed)

EC50 [2, 4]: 3.1 pM
Compound: CCCC[C@H](NC(=O)[C@H](CCC(N)=O)NC(=O)[C@H](CCCCN)NC(=O)[C@H](CO)NC(=O)[C@H](Cc1ccccc1F)NC(=O)[C@H](CC(=O)O)NC(=O)[C@H](CO)NC(=O)[C@@H](NC(=O)[C@H](Cc1ccccc1)NC(=O)[C@@H](NC(=O)CNC(=O)[C@H](CCC(N)=O)NC(=O)[C@H](CO)NC(=O)[C@@H](N)Cc1cscn1)[C@@H](C)O)[C@@H](C)O)C(=O)N[C@@H](CCC(=O)O)C(=O)N[C@@H](CO)C(=O)N[C@@H](CCCNC(=N)N)C(=O)N[C@@H](CCCNC(=N)N)C(=O)N[C@@H](C)C(=O)N[C@@H](CCC(N)=O)C(=O)N[C@@H](CC(=O)O)C(=O)N[C@@H](Cc1ccccc1)C(=O)N[C@H](C(=O)N[C@@H](CCC(=O)O)C(=O)N[C@@H](Cc1c[nH]c2ccccc12)C(=O)N[C@@H](CC(C)C)C(=O)N[C@@H](CC(C)C)C(=O)N[C@@H](C)C(=O)N[C@H](C(=O)NCC(=O)N1CCC[C@H]1C(=O)N[C@@H](CCC(=O)O)C(=O)N[C@@H](CO)C(=O)NCC(=O)N[C@@H](C)C(=O)N1CCC[C@H]1C(=O)N1CCC[C@H]1C(=O)N1CCC[C@H]1C(=O)N[C@@H](CO)C(=O)O)[C@@H](C)O)[C@@H](C)CC [SEQ ID NO 18, Tza-S-Q-G-T-F-T-S-D-2FPhe-S-K-Q-Nle-ESRRAQDFIEWLLATGPESGAPPPS-OH] (H-[Ala(4-thiazolyl)]SQGTFTSD[Phe(2-F)]SKQ[Nle]ESRRAQDFIEWLLATGPESGAPPPS-OH)

EC50 [2, 3]: 1.4 pM
Compound: H-HSQGTFTSDLSKQLESRRAQEFIEWLLATGPESGAPPPS-OH [SEQ ID NO 34, HSQGTFTSDLSKQLESRRAQEFIEWLLATGPESGAPPPS-OH, reference compound]
